Test results reported in patent publication US9951065B2 (Gilead Sciences, Inc., priority 2015, dated 2018).

Target: T1, IDO1 (Homo sapiens, UniProt P14902)
T1 construct: HeLa cells were treated with a test compound in the presence of IFNγ, which induces IDO1 expression; host or cells: H1-HeLa cells, IDO1 induced with IFNγ
Assay: Cell-based (HeLa) assay for measurement of IDO1 inhibition (kynurenine levels in supernatant after IFNγ induction)
Settings: HeLa cells, geometric mean of a minimum of four determinations
Description: Example 509. Cell-Based (HeLa) Assay for Measurement of IDOL Inhibition
To measure IDO1 inhibition in tissue culture, HeLa cells were treated with a test compound in the presence of IFNγ, which induces IDO1 expression. Following incubation, cell supernatants were assayed for kynurenine levels, an indicator of IDO1 activity.
H1-HeLa cells (ATCC #CRL-1958) were seeded in 384-well plates (Greiner #82051-282) at a volume of 50 μL/well in DMEM (Corning #15-018-CM) supplemented with 10% FBS (Corning #35-011-CV) and 1% P/S/G (Corning #30-009-CL) at a density of 1,250 cells/well and incubated overnight at 37° C., 5% CO2/100% humidity. The following day, the test compounds were added in DMSO (0.5% final) at various concentrations, and IDO1 was inducibly expressed by the addition of 50 uL/well of […] of INFγ (Peprotech #300-02) in cell plating media. As a […] control, 50 uL of the cell plating media without IFNγ was added to several wells. Following a 48 hour incubation, the plates were spun down at 1,200 RPM for 5 min at 10° C. 65 μL/well of the supernatant was then transferred to new 384-well plates (Thermo #262160) that contained 10 uL/well of 30% TCA (Sigma #TO699), and the plates were sealed and incubated at 60° C. for 30 min. The plates were then centrifuged for 15 min at 2,000 RPM at 10° C. 40 μL/well of the supernatant was transferred to new 384-well plates (Thermo #262160) and was reacted with 40 μL/well of 2% (w/v) p-dimethlyaminobenzaldehyde (Sigma #156417) in glacial acetic acid (Sigma #A6283). The reaction was incubated at room temperature for 10 min and absorbance at 480 nm was read using a PerkinElmer Envision plate reader.
Data in Table 1 were normalized based on positive (−IFNγ) and negative (+IFNγ) controls and EC50 values were calculated from the fit of the dose response curves to a four-parameter equation. All EC50 values represent geometric mean values of a minimum of four determinations. These assays generally produced results within 2-fold of the reported mean.

[1] = IFNγ-induced IDO1, kynurenine in supernatant, 48 hour incubation
[2] = IFNγ-induced IDO1, kynurenine in supernatant after 48 hour incubation

T1 sequence (P14902 whole entry): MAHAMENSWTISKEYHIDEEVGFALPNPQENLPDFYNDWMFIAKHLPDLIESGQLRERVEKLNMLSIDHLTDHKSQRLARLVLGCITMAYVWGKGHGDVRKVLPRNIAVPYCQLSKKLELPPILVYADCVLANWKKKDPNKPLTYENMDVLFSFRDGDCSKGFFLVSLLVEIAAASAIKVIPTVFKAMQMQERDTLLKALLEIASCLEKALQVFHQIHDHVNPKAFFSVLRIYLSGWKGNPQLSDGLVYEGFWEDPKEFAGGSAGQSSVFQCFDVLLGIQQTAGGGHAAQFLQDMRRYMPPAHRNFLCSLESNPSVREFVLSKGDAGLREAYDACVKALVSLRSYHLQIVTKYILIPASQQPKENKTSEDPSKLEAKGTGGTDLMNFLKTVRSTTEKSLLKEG

Structure (SMILES)	EC50 [1]	EC50 [2]
O/N=C(\Nc1ccc(F)c(Cl)c1)c1cc(F)c(F)c2nc(NCCN3CCC[C@H]3C(F)(F)F)[nH]c12 [Example 470, (S)-N-(3-chloro-4-fluorophenyl)-4,5-difluoro-N′-hydroxy-2-((2-(2-(trifluoromethyl)pyrrolidin-1-yl)ethyl)amino)-1H-benzo[d]imidazole-7-carboximidamide]	4.2 µM	–
CNCCNc1nc2c(F)c(F)cc(/C(=N/O)Nc3ccc(F)c(Cl)c3)c2[nH]1 [Example 395, N-(3-chloro-4-fluorophenyl)-4,5-difluoro-N′-hydroxy-2-((2-(methylamino)ethyl)amino)-1H-benzo[d]imidazole-7-carboximidamide]	0.757 µM	–
NC1(CCNc2nc3nccc(/C(=N/O)Nc4ccc(F)c(Cl)c4)c3[nH]2)CC1 [Example 242, 2-((2-(1-aminocyclopropyl)ethyl)amino)-N-(3-chloro-4-fluorophenyl)-N′-hydroxy-1H-imidazo[4,5-b]pyridine-7-carboximidamide]	–	1.63 µM
O/N=C(\Nc1ccc(F)c(Cl)c1)c1ccnc2nc(C(O)c3ccccc3)[nH]c12 (stereo not drawn) [Example 173, N-(3-Chloro-4-fluorophenyl)-N′-hydroxy-2-(hydroxy(phenyl)methyl)-1H-imidazo[4,5-b]pyridine-7-carboximidamide]	–	9.7 µM
O/N=C(\Nc1ccc(F)c(Cl)c1)c1ccnc2nc(CNCCc3ccccn3)[nH]c12 [Example 125, N-(3-Chloro-4-fluorophenyl)-N′-hydroxy-2-(((2-(pyridin-2-yl)ethyl)amino)methyl)-1H-imidazo[4,5-b]pyridine-7-carboximidamide]	–	2.08 µM
O/N=C(\Nc1cccc(Br)c1)c1ccnc2nc[nH]c12 [Example 80, N-(3-Bromophenyl)-N′-hydroxy-1H-imidazo[4,5-b]pyridine-7-carboximidamide]	–	0.111 µM
O/N=C(\Nc1ccc(F)c(Cl)c1)c1ccnc2nc(CCN3CCCCC3)[nH]c12 [Example 192, N-(3-Chloro-4-fluorophenyl)-N′-hydroxy-2-(2-(piperidin-1-yl)ethyl)-1H-imidazo[4,5-b]pyridine-7-carboximidamide]	–	0.241 µM
CNCCNc1nc2nccc(/C(=N/O)Nc3ccc(F)c(Cl)c3)c2[nH]1 [Example 216, N-(3-chloro-4-fluorophenyl)-N′-hydroxy-2-((2-(methylamino)ethyl)amino)-1H-imidazo[4,5-b]pyridine-7-carboximidamide]	–	2.01 µM
OCCNc1nc2c(F)c(F)cc(/C(=N/O)Nc3ccc(F)c(Cl)c3)c2[nH]1 [Example 295, N-(3-chloro-4-fluorophenyl)-4,5-difluoro-N′-hydroxy-2-((2-hydroxyethyl)amino)-1H-benzo[d]imidazole-7-carboximidamide]	–	3.26 µM
O/N=C(\Nc1ccc(F)c(Cl)c1)c1ccnc2nc(NC3CC(F)(F)C3)[nH]c12 [Example 162, N-(3-Chloro-4-fluorophenyl)-2-((3,3-difluorocyclobutyl)amino)-N′-hydroxy-1H-imidazo[4,5-b]pyridine-7-carboximidamide]	–	4.02 µM
COCCCN(C)Cc1nc2nccc(/C(=N/O)Nc3ccc(F)c(Cl)c3)c2[nH]1 [Example 122, N-(3-Chloro-4-fluorophenyl)-N′-hydroxy-2-(((3-methoxypropyl)(methyl)amino)methyl)-1H-imidazo[4,5-b]pyridine-7-carboximidamide]	–	1.88 µM
N#Cc1cc(N/C(=N\O)c2ccnc3nc[nH]c23)ccc1F [Example 90, N-(3-Cyano-4-fluorophenyl)-N′-hydroxy-1H-imidazo[4,5-b]pyridine-7-carboximidamide]	–	1.05 µM
Cc1c[nH]c(-c2nc3nccc(/C(=N/O)Nc4ccc(F)c(Cl)c4)c3[nH]2)n1 [Example 151, N-(3-Chloro-4-fluorophenyl)-N′-hydroxy-2-(4-methyl-1H-imidazol-2-yl)-1H-imidazo[4,5-b]pyridine-7-carboximidamide]	–	0.463 µM
CCN(CC)CCc1nc2nccc(/C(=N/O)Nc3ccc(F)c(Cl)c3)c2[nH]1 [Example 185, N-(3-Chloro-4-fluorophenyl)-2-(2-(diethylamino)ethyl)-N′-hydroxy-1H-imidazo[4,5-b]pyridine-7-carboximidamide]	–	0.531 µM
O/N=C(\Nc1cc(F)cc(C(F)(F)F)c1)c1ccnc2nc[nH]c12 [Example 75, N-(3-Fluoro-5-(trifluoromethyl)phenyl)-N′-hydroxy-1H-imidazo[4,5-b]pyridine-7-carboximidamide]	–	2.11 µM
OCC1CCCN1CCNc1nc2c(F)c(F)cc(/C(=N/O)Nc3ccc(F)c(Cl)c3)c2[nH]1 (stereo not drawn) [Example 490, N-(3-chloro-4-fluorophenyl)-4,5-difluoro-N′-hydroxy-2-((2-(2-(hydroxymethyl)pyrrolidin-1-yl)ethyl)amino)-1H-benzo[d]imidazole-7-carboximidamide]	0.186 µM	–
O/N=C(\Nc1ccc(F)c(Cl)c1)c1ccnc2nc(CC3CCCN3)[nH]c12 (stereo not drawn) [Example 329, N-(3-chloro-4-fluorophenyl)-N′-hydroxy-2-(pyrrolidin-2-ylmethyl)-1H-imidazo[4,5-b]pyridine-7-carboximidamide]	5 µM	–
CCN(CC)CCNc1nc2nccc(/C(=N/O)Nc3ccc(F)c(Cl)c3)c2[nH]1 [Example 167, N-(3-Chloro-4-fluorophenyl)-2-((2-(diethylamino)ethyl)amino)-N′-hydroxy-1H-imidazo[4,5-b]pyridine-7-carboximidamide]	–	2.91 µM
O/N=C(\Nc1ccc(F)c(Cl)c1)c1ccnc2nc(NC3COC3)[nH]c12 [Example 226, N-(3-chloro-4-fluorophenyl)-N′-hydroxy-2-(oxetan-3-ylamino)-1H-imidazo[4,5-b]pyridine-7-carboximidamide]	–	> 10 µM
O/N=C(\Nc1ccc(F)c(Cl)c1)c1cc(F)c(F)c2nc(N[C@H]3CCCCNC3)[nH]c12 [Example 462, (S)-2-(azepan-3-ylamino)-N-(3-chloro-4-fluorophenyl)-4,5-difluoro-N′-hydroxy-1H-benzo[d]imidazole-7-carboximidamide]	1.43 µM	–
O=S(=O)(NCCNc1nc2c(F)c(F)cc(/C(=N/O)Nc3ccc(F)c(Cl)c3)c2[nH]1)c1ccccc1 [Example 339, N-(3-chloro-4-fluorophenyl)-4,5-difluoro-N′-hydroxy-2-((2-(phenylsulfonamido)ethyl)amino)-1H-benzo[d]imidazole-7-carboximidamide]	> 10 µM	–
O/N=C(\Nc1ccc(F)c(Cl)c1)c1cc(Cl)cc2[nH]cnc12 [Example 11, 6-Chloro-N-(3-chloro-4-fluorophenyl)-N′-hydroxy-1H-benzo[d]imidazole-4-carboximidamide]	–	7.6 µM
COCCNCc1nc2nccc(/C(=N/O)Nc3ccc(F)c(Cl)c3)c2[nH]1 [Example 124, N-(3-Chloro-4-fluorophenyl)-N′-hydroxy-2-(((2-methoxyethyl)amino)methyl)-1H-imidazo[4,5-b]pyridine-7-carboximidamide]	–	2.06 µM
CN(CCNc1nc2c(F)c(F)cc(/C(=N/O)Nc3ccc(F)c(Cl)c3)c2[nH]1)Cc1ccccc1 [Example 390, 2-((2-(benzyl(methyl)amino)ethyl)amino)-N-(3-chloro-4-fluorophenyl)-4,5-difluoro-N′-hydroxy-W-benzo[d]imidazole-7-carboximidamide]	1.02 µM	–
